Laboratory results published in patent publication US20080275078A1, “Pyrazolo[3,4-B] Pyridine Compounds and Their Use as Pde4 Inhibitors” (Glaxo Group Limited, priority 2004, published 2008).

target: T1, PDE4B (human recombinant) (Homo sapiens, UniProt Q07343); assay: Inhibition of PDE4B activity (SPA or FP assay); assay type: biochemical; conditions: SPA or FP assay or similar; n=1 or average of 2 or more readings; range given for the listed group of Examples; read-out: PDE4B pIC50 (±about 0.5) (converted)
T1 construct: made in house; host or cells: Saccharomyces cerevisiae strain GL62 (PDE-deficient yeast), 100,000xg supernatant of cell lysate, as described in WO 94/20079
T1 sequence (Q07343 1-564 isoform Q07343-2): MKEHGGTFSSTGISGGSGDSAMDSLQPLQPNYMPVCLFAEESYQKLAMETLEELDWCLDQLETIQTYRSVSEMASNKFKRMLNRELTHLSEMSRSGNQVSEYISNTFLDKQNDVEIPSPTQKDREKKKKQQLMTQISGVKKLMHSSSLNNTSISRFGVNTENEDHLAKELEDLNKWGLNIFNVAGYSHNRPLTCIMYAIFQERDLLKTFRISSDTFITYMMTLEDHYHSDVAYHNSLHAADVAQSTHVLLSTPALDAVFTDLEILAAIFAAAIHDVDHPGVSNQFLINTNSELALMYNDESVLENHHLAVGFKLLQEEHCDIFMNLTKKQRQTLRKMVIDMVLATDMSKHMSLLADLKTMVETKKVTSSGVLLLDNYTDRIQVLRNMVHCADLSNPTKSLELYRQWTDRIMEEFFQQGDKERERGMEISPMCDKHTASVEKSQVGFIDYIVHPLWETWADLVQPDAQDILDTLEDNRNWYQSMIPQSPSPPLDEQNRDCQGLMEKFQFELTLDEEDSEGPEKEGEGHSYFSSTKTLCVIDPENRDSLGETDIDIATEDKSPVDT
Excerpt: Human recombinant PDE4B, in particular the 2B splice variant thereof (HSPDE4B2B), is disclosed in WO 94/20079 and also M. M. McLaughlin et al., “A low Km, rolipram-sensitive, cAMP-specific phosphodiesterase from human brain: cloning and expression of cDNA, biochemical characterisation of recombinant protein, and tissue distribution of mRNA”, J. Biol. Chem., 1993, 268, 6470-6476. For example, in Example 1 of WO 94/20079, human recombinant PDE4B is described as being expressed in the PDE-deficient yeast Saccharomyces cerevisiae strain GL62, e.g. after induction by addition of 150 uM CuSO4, and 100,000×g supernatant fractions of yeast cell lysates are described for use in the harvesting of PDE4B enzyme.
The ability of compounds to inhibit catalytic activity at PDE4B or 4D (human recombinant), PDE3 (from bovine aorta), PDE5 (human recombinant) or PDE6 (from bovine retina) can optionally be determined by Scintillation Proximity Assay (SPA) in a 96-well format. • Test compounds (as a solution in DMSO, preferably about 2 microlitre (ul) volume of DMSO solution) are preincubated at ambient temperature (room temperature, e.g. 19-23° C.) in Wallac Isoplates (code 1450-514) with PDE enzyme in 50 mM Tris-HCl buffer pH 7.5, 8.3 mM MgCl2, 1.7 mM EGTA, 0.05% (w/v) bovine serum albumin for 10-30 minutes (usually 30 minutes). The enzyme concentration is adjusted so that no more than 20% hydrolysis of the substrate defined below occurs in control wells without compound, during the incubation. For the PDE3, PDE4B and PDE4D assays, [5′,8-^3H]Adenosine 3′,5′-cyclic phosphate (Amersham Pharmacia Biotech, code TRK.559; or Amersham Biosciences UK Ltd, Pollards Wood, Chalfont St Giles, Buckinghamshire HP8 4SP, UK) is added to give 0.05 uCi per well and about 10 nM final concentration. For the PDE5 and PDE6 assays, [8-^3H]Guanosine 3′,5′-cyclic phosphate (Amersham Pharmacia Biotech, code TRK.392) is added to give 0.05 uCi per well and about 36 nM final concentration. Plates containing assay mixture, preferably approx. 100 ul volume of assay mixture, are mixed on an orbital shaker for 5 minutes and incubated at ambient temperature for 1 hour. Phosphodiesterase SPA beads (Amersham Pharmacia Biotech, code RPNQ 0150) are added (about 1 mg per well) to terminate the assay. Plates are sealed and shaken and allowed to stand at ambient temperature for 35 minutes to 1 hour (preferably 35 minutes) to allow the beads to settle. Bound radioactive product is measured using a WALLAC TRILUX 1450 Microbeta scintillation counter. For inhibition curves, 10 concentrations (e.g. 1.5 nM-30 uM) of each compound are assayed. Curves are analysed using ActivityBase and XLfit (ID Business Solutions Limited, 2 Ocean Court, Surrey Research Park, Guildford, Surrey GU2 7QB, United Kingdom) Results are expressed as pIC50 values.
The ability of compounds to inhibit catalytic activity at PDE4B (human recombinant) or PDE4D (human recombinant) can optionally be determined by IMAP Fluorescence Polarisation (FP) assay (IMAP Explorer kit, available from Molecular Devices Corporation, Sunnydale, Calif., USA; Molecular Devices code: R8062) in a 384-well format.
The IMAP FP assay is able to measure PDE activity in an homogenous, non-radioactive assay format. The FP assay uses the ability of immobilised trivalent metal cations, coated onto nanoparticles (tiny beads), to bind the phosphate group of Fl-AMP that is produced on the hydrolysis of fluorescein-labelled (Fl) cyclic adenosine mono-phosphate (Fl-cAMP) to the non-cyclic Fl-AMP form. […] Binding of Fl-AMP product to the beads (coated with the immobilised trivalent cations) slows the rotation of the bound Fl-AMP and leads to an increase in the fluorescence polarisation ratio of parallel to perpendicular light. Inhibition of the PDE reduces/inhibits this signal increase. […]

| Compound | IC50 [nM] |
| --- | --- |
| CCn1ncc2c(NC3CCC(C(N)=O)CC3)c(C(=O)NCc3ccc(C)cc3C)cnc21 (stereo not drawn) [Example 5, 4-{[4-(aminocarbonyl)cyclohexyl]amino}-N-[(2,4-dimethylphenyl)methyl]-1-ethyl-1H-pyrazolo[3,4-b]pyridine-5-carboxamide] | 1 to 3.16 |
| CCn1ncc2c(N[C@H]3CCN(C(N)=O)C3)c(C(=O)NCc3ccc(C)cc3C)cnc21 [Example 69, 4-{[(3S)-1-(aminocarbonyl)-3-pyrrolidinyl]amino}-N-[(2,4-dimethylphenyl)methyl]-1-ethyl-1H-pyrazolo[3,4-b]pyridine-5-carboxamide] | ~10 |
| CCn1ncc2c(N[C@H]3CC[C@@H](C(N)=O)CC3)c(C(=O)NCc3ccc(C)cc3C)cnc21 [Example 45, 4-{[cis-4-(aminocarbonyl)cyclohexyl]amino}-N-[(2,4-dimethylphenyl)methyl]-1-ethyl-1H-pyrazolo[3,4-b]pyridine-5-carboxamide] | 1.26 to 5.01 |
| CCn1ncc2c(NC3CCN(C(N)=O)CC3)c(C(=O)NCc3ccc(C)cc3C)cnc21 [Example 1, 4-{[1-(aminocarbonyl)-4-piperidinyl]amino}-N-[(2,4-dimethylphenyl)methyl]-1-ethyl-1H-pyrazolo[3,4-b]pyridine-5-carboxamide] | 0.631 to 0.794 |
| CCn1ncc2c(N[C@H]3CC[C@H](C(N)=O)CC3)c(C(=O)NCc3ccc(C)cc3C)cnc21 [Example 46, 4-{[trans-4-(aminocarbonyl)cyclohexyl]amino}-N-[(2,4-dimethylphenyl)methyl]-1-ethyl-1H-pyrazolo[3,4-b]pyridine-5-carboxamide] | 158 to 200 |
| CCn1ncc2c(N[C@H]3CC[C@@H](C(N)=O)CC3)c(C(=O)NCc3ccc(C)c(C)c3)cnc21 [Example 8, 4-{[cis-4-(aminocarbonyl)cyclohexyl]amino}-N-[(3,4-dimethylphenyl)methyl]-1-ethyl-1H-pyrazolo[3,4-b]pyridine-5-carboxamide] | 1 to 3.16 |
| CCn1ncc2c(N[C@H]3CC[C@H](C(N)=O)CC3)c(C(=O)NCc3ccc(C)c(C)c3)cnc21 [Example 9, 4-{[trans-4-(aminocarbonyl)cyclohexyl]amino}-N-[(3,4-dimethylphenyl)methyl]-1-ethyl-1H-pyrazolo[3,4-b]pyridine-5-carboxamide] | 158 to 200 |

The remaining lines, values ahead:

| IC50 [nM] | Compound |
| --- | --- |
| 31.6 to 100 | CCn1ncc2c(N[C@@H]3CCN(C(N)=O)C3)c(C(=O)NCc3ccc(C)cc3C)cnc21 [Example 71, 4-{[(3R)-1-(aminocarbonyl)-3-pyrrolidinyl]amino}-N-[(2,4-dimethylphenyl)methyl]-1-ethyl-1H-pyrazolo[3,4-b]pyridine-5-carboxamide] |
| 1.26 to 5.01 | CCn1ncc2c(N[C@H]3CC[C@@H](C(N)=O)CC3)c(C(=O)NCc3ccc(OC)cc3)cnc21 [Example 47, 4-{[cis-4-(aminocarbonyl)cyclohexyl]amino}-1-ethyl-N-{[4-(methyloxy)phenyl]methyl}-1H-pyrazolo[3,4-b]pyridine-5-carboxamide] |
| 31.6 to 100 | CCn1ncc2c(N[C@@H]3CCN(C(N)=O)C3)c(C(=O)NCc3ccc(C)c(C)c3)cnc21 [Example 72, 4-{[(3R)-1-(aminocarbonyl)-3-pyrrolidinyl]amino}-N-[(3,4-dimethylphenyl)methyl]-1-ethyl-1H-pyrazolo[3,4-b]pyridine-5-carboxamide] |
| 1 to 3.16 | CCn1ncc2c(NC3CCC(C(N)=O)CC3)c(C(=O)NCc3ccc(C)c(C)c3)cnc21 (stereo not drawn) [Example 4, 4-{[4-(aminocarbonyl)cyclohexyl]amino}-N-[(3,4-dimethylphenyl)methyl]-1-ethyl-1H-pyrazolo[3,4-b]pyridine-5-carboxamide] |
| ~10 | CCn1ncc2c(N[C@H]3CCN(C(N)=O)C3)c(C(=O)NCc3ccc(C)c(C)c3)cnc21 [Example 70, 4-{[(3S)-1-(aminocarbonyl)-3-pyrrolidinyl]amino}-N-[(3,4-dimethylphenyl)methyl]-1-ethyl-1H-pyrazolo[3,4-b]pyridine-5-carboxamide] |
